# US8642545B2, “Erythropoietin mimetic peptide derivative and its pharmaceutical salts, the preparation and uses thereof” (Jiangsu Hansoh Pharmaceutical Co., Ltd, priority 2007, dated 2014)
# Like-named read-outs stand apart in the source and are kept apart here. *1 amine or outer side, *2 acyl side, *3 side chain or, on linkers, in order; H or OH if unused. Bridges are numbered along the chain shown (N, C = ends). Roman numbers before positions name the chains, in order. [ ]: non-standard residue; d: D form. ξ: configuration not given here. X1 = NCCNC(=O)OC(CCC(=O)[*:1])CCC(=O)[*:2]; Nle = CCCC[C@H](N)C(=O)O; ξK = NCCCCC(N)C(=O)O; βAla = NCCC(=O)O
# Columns and labels:
# erythropoiesis of mice = assay: Effects of EPO mimetic peptide derivatives on mice, sc injection on three consecutive days, peripheral blood cell and reticulocyte counts; format: in vivo, Kunming mice; conditions: for Platelet / White Blood Cell: 4.5 mg/kg
# Protocol: The biological activity of EPO, or EPO mimetic peptide derivatives and their pharmaceutical salts provided by this invention can be determined by various assays known in this field. Testing of in vivo activity is performed as follows: mice are subcutaneously injected with EPO and EPO mimetic peptide derivatives and their pharmaceutical salts provided by this invention on three consecutive days. The mice are then sacrificed. The whole blood is taken to carry out peripheral blood cells and reticulocyte count. The blood cell count is performed by automatic blood cell counter. […] The dose of EPO protein as a control drug is 240 μ/kg. The drugs are administered three times per week and the administration continues for six weeks. The blood samples are collected to carry out related hematological index analysis. The purpose of the experiments is to evaluate and compare the effects of EPO mimetic peptide derivatives and the EPO protein on erythropoiesis of mice. […] EPO is purchased from […] Pharmaceutical Co., Ltd. Kunming mice are purchased from the Chinese Academy of Sciences Shanghai Experimental Animal Center, weighing 25 30 g, ♀. The number of animals in each group is 10. Mice are injected subcutaneously with EPO mimetic peptide derivatives and EPO protein for three consecutive days. Then the mice are killed, the whole blood is used to carry out peripheral blood cells and reticulocyte counts. Blood cell count is performed using automatic blood cell counter counts.
# [1] = test system: erythropoiesis of the macaques; assay: Effects of EPO mimetic peptide derivatives on macaques, hematological indexes; format: in vivo
# Protocol: The biological activity of EPO, or EPO mimetic peptide derivatives and their pharmaceutical salts provided by this invention can be determined by various assays known in this field. Testing of in vivo activity is performed as follows: mice are subcutaneously injected with EPO and EPO mimetic peptide derivatives and their pharmaceutical salts provided by this invention on three consecutive days. The mice are then sacrificed. The whole blood is taken to carry out peripheral blood cells and reticulocyte count. The blood cell count is performed by automatic blood cell counter. Pharmacodynamic studies are carried out by intravenous administration to macaques with a dose of 1.35 mg/kg. The dose of EPO protein as a control drug is 240 μ/kg. The drugs are administered three times per week and the administration continues for six weeks. The blood samples are collected to carry out related hematological index analysis.
# The purpose of this experiment is to evaluate the effects of EPO mimetic peptide derivatives on erythropoiesis of the macaques.
# EPO mimetic peptide HH-EPO-018 is provided by Jiangsu Hansoh Pharmaceutical co., LTD. EPO is purchased from Shenyang Sansheng Pharmaceutical Co., Ltd. The samples are diluted in a saline containing 0.1% BSA before they are used.
# Macaques, weighing 5.5˜8.5 kg, male or female, are purchased from Suzhou Xishan Zhongke Laboratory Animal Center. Macaques are grouped according to the basis of hemoglobin with each group having three macaques. HH-EPO-018 is intravenously injected once at a dose of 1.35 mg/kg; EPO is injected three times per week at a dose of 240 μg/kg. The administration is continued for five weeks. Measure hematological indexes are measured 1˜2 times per week.
# [2] = test system: EPO binding sites on red blood cells from the spleen; conditions: about 400 binding sites, some, cited from earlier work
# [3] = test system: EPO binding sites on immature red blood cells; conditions: cited from earlier work
# [4] = current dosage regimen, three consecutive days
# [5] = macaques, 240 μg/kg three times per week, five weeks
substance,measurement,setting,value
"I: Ac-GGTYSCHFGSLTWVCRPQRG[βAla][ξK]-NH2 / II: Ac-GGTYSCHFGSLTWVCRPQRG[βAla][ξK]-NH2 (disulfide I:6-I:15, II:6-II:15; linker I:22-II:22 via X1) [HH-EPO-007]",Platelet,"erythropoiesis of mice; mouse, d1-3",2082.1 ± 863.9 ×10^3/μL
same,White Blood Cell,"erythropoiesis of mice; mouse, d1-3",3.6 ± 0.8 ×10^3/μL
"I: Ac-GGTYSCHFGALTWVCRPQRG[βAla][ξK]-NH2 / II: Ac-GGTYSCHFGALTWVCRPQRG[βAla][ξK]-NH2 (disulfide I:6-I:15, II:6-II:15; linker I:22-II:22 via X1) [HH-EPO-008]",Platelet,"erythropoiesis of mice; mouse, d1-3",1685.5 ± 351.3 ×10^3/μL
same,White Blood Cell,"erythropoiesis of mice; mouse, d1-3",2.9 ± 0.5 ×10^3/μL
"I: Ac-GGTYSC[Nle]FGPLTWVCRPQRG[βAla][ξK]-NH2 / II: Ac-GGTYSC[Nle]FGPLTWVCRPQRG[βAla][ξK]-NH2 (disulfide I:6-I:15, II:6-II:15; linker I:22-II:22 via X1) [HH-EPO-006]",Platelet,"erythropoiesis of mice; mouse, d1-3",1087.8 ± 118.5 ×10^3/μL
same,White Blood Cell,"erythropoiesis of mice; mouse, d1-3",4.1 ± 1.2 ×10^3/μL
"I: Ac-GGTYSCHFGPLTWVCRPQRG[βAla][ξK]-NH2 / II: Ac-GGTYSCHFGPLTWVCRPQRG[βAla][ξK]-NH2 (disulfide I:6-I:15, II:6-II:15; linker I:22-II:22 via X1) [HH-EPO-005]",Platelet,"erythropoiesis of mice; mouse, d1-3",1957.8 ± 349.5 ×10^3/μL
same,White Blood Cell,"erythropoiesis of mice; mouse, d1-3",4.2 ± 1.2 ×10^3/μL
"EPO: EPO protein purchased from Shenyang Sansheng Pharmaceutical Co., Ltd.; control drug","influence on mature red blood cells, blood cell hematocrit, hemoglobin content (in words)",erythropoiesis of mice; [4],no significant influence
same,mouse peripheral blood reticulocyte count (in words),erythropoiesis of mice; [4],significantly promote the increase
same,Blood Cell Hematocrit,"erythropoiesis of mice; mouse, 5 μg/kg, d1-3",46.2 ± 2.7%
same,Red Blood Cell Count,"erythropoiesis of mice; mouse, 5 μg/kg, d1-3, x ± SD",9.0 ± 0.6 ×10^6/μL
same,Reticulocyte Count,"erythropoiesis of mice; mouse, 5 μg/kg, d1-3, x ± SD",483.9 ± 146.5 ×10^9/L
same,influence on the peripheral white blood cell count (in words),"erythropoiesis of mice; mouse, in vivo",no significant influence
same,"stimulation on macaque hemoglobin generation, HH-EPO-018 compared with EPO (in words)",[1]; according to the current dosing regimens,similar
same,blood cell hematocrit (in words),[1]; [5],increases
same,peripheral blood hemoglobin content (in words),[1]; [5],increases
same,Kd,"[2]; ""high Kd""",0.1 nM
same,Kd,"[2]; ""low Kd""",0.8 nM
same,Kd,[3]; about 300 binding sites of about 800 to 1000 per cell membrane,0.09 nM
same,Kd,"[3]; remaining binding sites, weak binding",~0.57 nM
